# Experimental data: ChEMBL document CHEMBL5532728, “Novel Tyrosine Kinase 2 Inhibitors for Treating Autoimmune and Inflammatory Diseases” (ACS Med Chem Lett, 2024)
# Molecular target: Non-receptor tyrosine-protein kinase TYK2 (Homo sapiens, UniProt P29597)
# Assay: Inhibition of 10-His tagged recombinant TYK2 JH2 domain (575 to 876 residues) (unknown origin) incubated for 60 mins by TR-FRET assay
# Non-receptor tyrosine-protein kinase TYK2, sequence (P29597 whole entry, the tested form may be a part): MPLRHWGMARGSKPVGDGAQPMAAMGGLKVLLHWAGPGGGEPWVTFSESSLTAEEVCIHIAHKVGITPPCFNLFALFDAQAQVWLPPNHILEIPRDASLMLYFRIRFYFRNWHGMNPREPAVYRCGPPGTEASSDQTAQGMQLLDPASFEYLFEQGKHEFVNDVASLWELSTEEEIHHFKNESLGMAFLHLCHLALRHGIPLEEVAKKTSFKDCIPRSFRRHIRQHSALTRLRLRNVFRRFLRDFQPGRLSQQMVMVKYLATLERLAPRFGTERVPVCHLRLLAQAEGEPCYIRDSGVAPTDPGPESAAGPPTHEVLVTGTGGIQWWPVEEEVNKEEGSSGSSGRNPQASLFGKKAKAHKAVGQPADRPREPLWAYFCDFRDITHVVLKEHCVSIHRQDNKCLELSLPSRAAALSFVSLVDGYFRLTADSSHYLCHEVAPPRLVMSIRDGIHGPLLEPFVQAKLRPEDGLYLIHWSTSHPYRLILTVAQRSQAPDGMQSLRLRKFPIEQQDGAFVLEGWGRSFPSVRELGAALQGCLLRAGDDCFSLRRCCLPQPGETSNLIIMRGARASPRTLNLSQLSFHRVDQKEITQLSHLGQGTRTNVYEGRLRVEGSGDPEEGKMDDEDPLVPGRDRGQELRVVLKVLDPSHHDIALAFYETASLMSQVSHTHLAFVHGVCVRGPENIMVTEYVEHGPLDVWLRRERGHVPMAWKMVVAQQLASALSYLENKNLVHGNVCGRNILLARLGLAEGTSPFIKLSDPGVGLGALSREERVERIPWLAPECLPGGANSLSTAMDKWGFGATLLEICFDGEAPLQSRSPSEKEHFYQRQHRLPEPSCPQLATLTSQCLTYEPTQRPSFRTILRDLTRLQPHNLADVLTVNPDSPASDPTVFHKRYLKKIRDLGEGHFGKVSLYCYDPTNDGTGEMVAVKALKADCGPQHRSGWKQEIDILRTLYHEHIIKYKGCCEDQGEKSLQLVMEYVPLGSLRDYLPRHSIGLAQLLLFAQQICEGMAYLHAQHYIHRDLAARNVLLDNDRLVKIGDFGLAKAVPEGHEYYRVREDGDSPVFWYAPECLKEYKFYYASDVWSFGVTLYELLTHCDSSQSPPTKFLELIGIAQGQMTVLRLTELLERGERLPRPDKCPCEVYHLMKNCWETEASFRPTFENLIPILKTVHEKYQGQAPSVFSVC
row,SMILES,IC50 [nM]
1,CC(=O)Nc1cc2c(cn1)C1(CC1)CN2c1cc(C)nc(C2CCC2)n1,≤ 10
2,CC(=O)Nc1cc2c(cn1)C1(CC1)CN2c1cc(NC2CCSC2)nc(C(C)(F)F)n1 (stereo unspecified),≤ 10
3,CSc1nc(C)cc(N2CC3(CC3)c3cnc(NC(C)=O)cc32)n1,≤ 10
4,CC(=O)Nc1cc2c(cn1)C1(CC1)CN2c1nc(C2CCOC2)c(C)s1 (stereo unspecified),≤ 10
5,CC(=O)Nc1cc2c(cn1)C1(CC1)CN2c1cc(-c2ncn(C)n2)nc(C(C)(F)F)n1,≤ 10
6,CC(=O)Nc1cc2c(cn1)C1(CC1)CN2c1cccc(S(C)(=O)=O)n1,≤ 10
